These are literature values, as cited in US20030040489A1, “Process for producing l-arabinose, l-arabinose-containing enzymatically processed products, diet foods, diabetic diet foods and fruit or vegetable juices and process for producting the same” (priority 1999, published 2003).

The series has as its system disaccharide-decomposing enzymes (maltase, sucrase, etc.). The note with it: enzymes of duodenal and small intestinal mucosae.

For `O=C[C@H](O)[C@@H](O)[C@@H](O)CO` [L-arabinose], the “mode of inhibition of disaccharide-decomposing enzymes” value is “uncompetitively inhibits”.
